In patent US20120329985A1, “Optimal hydolysis conditions of soy protein to produce peptides with lipolysis-stimulating activity and their sequencing and use thereof” (TUNGHAI UNIVERSITY, priority 2011, published 2012):
Read-outs that look alike come from different tables or passages of the source. Where a SMILES comes first, the peptide text is derived from it.

Columns and labels:
[1] = test system: gastrointestinal enzymes (pepsin, pancreatin); test: Resistance of the synthetical peptides in the mimic gastrointestinal environment; conditions: pepsin 25:1, pH 2.0, 37° C., 4 hours; pancreatin 25:1, 4 hours
Method: (§1) Then adding pepsin with substrate-enzyme ratio at 25:1 and incubating for 4 hours is performed to mimic the environment in stomach. Following the incubation, the solution is neutralized by addition of 2N NaOH and heating some aliquot for 15 minutes to terminate the pepsin activity for freeze storage. The remainder is further incubated with pancreatin with substrate-enzyme ratio at 25:1 for 4 hours to mimic the intestinal environment. After termination of the enzyme activity by heating in boiled water and followed by cooling, the sample is freeze stored for the further analysis.
(§2) After temperature returned, the each frozen sample processed in the mimic gastrointestinal environment is centrifuged at 10,000×g for 40 minutes. After centrifugation, the supernatant is collected and filtrated through 0.22 μm filter, and added into the culture medium for 3T3-L1 adipocytes. On day 11 post-differentiation, the supernatant or cell extract are collected as the methods described in example 3 and example 7 for measuring the glycerol release and triglyceride residue in the adipocytes. The glycerol release and triglyceride residue in the adipocytes are calculated from the absorption excited by 500 and 520 nm wavelength.

3T3-L1 adipocytes [2] = test: Measurement of the glycerol released from 3T3-L1 adipocytes; type: cell-based; conditions: 4 ppm fractions and synthetical peptides (FIG. 22); control basal level 312.3
Method: The precursor cells of 3T3-L1 cell are purchased from Food Industry Research and Development Institute in Taiwan. The purchased precursor cells of 3T3-L1 adipocytes are cultured in 24-wells plate with 1×10^4 cells/well. The cells are cultured with DMEM (Dulbecco's Modified Eagle Medium) containing 10% FBS (Fetal bovine serum) at 37° C. in the incubator with 5% CO2, and refresh cultured medium every two days. While the 3T3-L1 cells are filled within the culture dish, the culture medium is changed to the differentiation medium (DM) for promoting adipocytes differentiation, which is defined as day 0 post-differentiation. The differentiation medium contains 1.74 μM insulin, […] dexamethasone (DEX) and 0.5 mM isobutyl-methylxanthine (IBMX). From day 2 post-differentiation, the culture medium is exchanged to DMEM with 1.74 μM insulin and refreshed every two days until day 8 post-differentiation. On day 8 post-differentiation, the precursor cells would differentiate into mature 3T3-L1 adipocytes. […]
30 μL of the cultured medium is collected and mixed with detecting kit (GY105) to measure the glycerol release. After reaction at room-temperature for 5 minutes, the absorption excited by 520 nm wavelength is measured by spectrophotometer to calculate the glycerol released from adipocytes.

3T3-L1 adipocytes [3] = test: Measurement of the triglyceride residue in 3T3-L1 adipocytes; type: cell-based; conditions: 4 ppm fractions and synthetical peptides (FIG. 23)
Method: The precursor cells of 3T3-L1 cell are purchased from Food Industry Research and Development Institute in Taiwan. The purchased precursor cells of 3T3-L1 adipocytes are cultured in 24-wells plate with 1×10^4 cells/well. The cells are cultured with DMEM (Dulbecco's Modified Eagle Medium) containing 10% FBS (Fetal bovine serum) at 37° C. in the incubator with 5% CO2, and refresh cultured medium every two days. While the 3T3-L1 cells are filled within the culture dish, the culture medium is changed to the differentiation medium (DM) for promoting adipocytes differentiation, which is defined as day 0 post-differentiation. The differentiation medium contains 1.74 μM insulin, […] dexamethasone (DEX) and 0.5 mM isobutyl-methylxanthine (IBMX). From day 2 post-differentiation, the culture medium is exchanged to DMEM with 1.74 μM insulin and refreshed every two days until day 8 post-differentiation. On day 8 post-differentiation, the precursor cells would differentiate into mature 3T3-L1 adipocytes.
On day 11, the cultured cells are washed with PBS and lysed by adding lysis buffer. The supernatant of cell lysis is collected after centrifugation at 13000 rpm for 10 minutes. 10 μL supernatant of cell lysis is mixed with 1 ml triglyceride detecting kit (TR213) and incubated at room-temperature for 5 minutes. After the incubation, the triglyceride residue in the adipocytes could be calculated according to absorption excited by 500 nm wavelength and shown in FIG. 6. In FIG. 6, control experiment is the cells without treatment of ISP hydrolysate or any fractions.

[4] = test system: gastrointestinal enzymes (pepsin, pancreatin); conditions: pH 2
Method: as §1, §2

Q: How did the “Bioactivity for lipolysis after gastrointestinal enzymes” value [1] turn out when `CC(C)C[C@H](NC(=O)[C@H](CC(C)C)NC(=O)[C@@H](N)CC(C)C)C(=O)O` [Leu-Leu-Leu] (H-Leu-Leu-Leu-OH; N-terminus and C-terminus assumed) was run?
A: Its value is “resistant”.

Q: With Ile-Leu-Leu as the compound, how does the Glycerol release (3T3-L1 adipocytes [2]) read?
A: The Glycerol release was 540.81 nmol/mg protein.

Q: What about the “Effect on triglyceride residue versus control” value (3T3-L1 adipocytes [3]) of the same compound?
A: The value was “significantly reduce”.

Q: And the Triglyceride residue (3T3-L1 adipocytes [3]; control 3.2)?
A: Its Triglyceride residue is 1.41 μmol/mg protein.

Q: For Ile-Ile-Ile, which “Effect on triglyceride residue versus control” value (3T3-L1 adipocytes [3]) is on record?
A: The value was “significantly reduce”.

Q: How did the “Bioactivity for lipolysis after gastrointestinal enzymes” value [4] turn out when `CC(C)[C@H](N)C(=O)N[C@@H](Cc1c[nH]cn1)C(=O)N[C@H](C(=O)N[C@H](C(=O)O)C(C)C)C(C)C` [Val-His-Val-Val] (H-VHVV-OH; N-terminus and C-terminus assumed) was run?
A: The value was “resistant”.
